From BindingDB's records for doi:10.1021/acs.jmedchem.9b02038 (China Pharmaceutical University, 2020)

Experiments:
[1] = Inhibition of Vps34 in human MCF7-LC3 cells assessed as rapamycin-induced autophagy
[2] = Inhibition of Vps34 in human MCF7-LC3 cells assessed as starvation-induced autophagy

IC50 [1]: 40 nM | IC50 [2]: 90 nM
Compound: Cc1cc(Nc2cc(Cl)nc(Oc3ccc([N+](=O)[O-])cc3)n2)n[nH]1
